In the test the target is T1, GPR50-EGFP receptor (Homo sapiens, UniProt Q13585).
T1 construct: signal peptide (SP) of the pCEP4-SP-EGFP vector (N); expressed in transfected cells
Description: Real-time measurement of energy transfer (FRET) between fluorescent ligand and GPR50-EGFP receptor on HEK 293 cells. In kind it is binding. To be noted: ligand at 500 nM; excitation 470 nm, fluorescence at 510 nm; FIG. 6. The source says:
The binding of certain molecules was verified with the spectrofluorimeter (equipment previously described (see Example 1)).

Among the data in patent publication US7745413B2, “Collection of traceable compounds and uses thereof” (Centre National de la Recherche Scientifique (CNRS), priority 2004, dated 2010) are energy transfer values, retold here.

T1 sequence (Q13585 9-617 limits assumed): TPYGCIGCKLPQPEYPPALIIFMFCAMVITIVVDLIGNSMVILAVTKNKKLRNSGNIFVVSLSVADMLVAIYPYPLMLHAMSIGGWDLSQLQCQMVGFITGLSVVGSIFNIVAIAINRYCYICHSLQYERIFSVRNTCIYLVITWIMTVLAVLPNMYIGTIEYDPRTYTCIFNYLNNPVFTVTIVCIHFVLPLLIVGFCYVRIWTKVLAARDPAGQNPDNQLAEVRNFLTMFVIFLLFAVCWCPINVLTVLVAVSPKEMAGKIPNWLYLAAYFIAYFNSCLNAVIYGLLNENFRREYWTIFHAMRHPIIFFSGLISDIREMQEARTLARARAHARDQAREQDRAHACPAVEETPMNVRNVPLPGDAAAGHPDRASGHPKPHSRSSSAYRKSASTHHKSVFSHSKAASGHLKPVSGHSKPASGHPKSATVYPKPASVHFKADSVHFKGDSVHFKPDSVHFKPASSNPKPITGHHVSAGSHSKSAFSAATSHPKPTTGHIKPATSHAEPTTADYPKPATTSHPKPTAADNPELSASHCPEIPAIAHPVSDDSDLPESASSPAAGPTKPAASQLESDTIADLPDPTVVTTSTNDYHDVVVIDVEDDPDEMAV

As to `CCN(CCN(CC)C(=O)C(Cc1c[nH]c2ccccc12)NC(=O)C(CCCCNS(=O)(=O)c1ccc2c(c1)S(=O)(=O)OC21c2ccc(N(CC)CC)cc2Oc2cc(N(CC)CC)ccc21)NC(=O)C1=CCCN(C)C1)Cc1ccccc1` (stereo not shown) [FG 229 F4], the energy transfer came out at 2%.
